Data set [1] can be described thus: Cytotoxicity against African green monkey Vero cells. The data set is classed as cell-based. Conditions: chlorocebus sabaeus.
Data set [2] is described as follows: Toxicity in Hamster rat infected with SARS-CoV-2 C-Tan-nCoV Wuhan strain 01 assessed as body weight loss at 5 mg/kg, inh measured after 4 days. The data set is classed as organism-based. Conditions: in vivo, inhaled_or_intranasal, 96 h, time 4 day.
The test system of data set [3] is SARS-CoV-2. Put plainly: Antiviral activity against SARS-CoV-2 C-Tan-nCoV Wuhan strain 01 infected in African green monkey Vero cells assessed as inhibition of viral replication measured after 48 hrs by RT-qPCR method. The data set is classed as functional, organism-based. Conditions: Severe acute respiratory syndrome coronavirus 2, C-Tan-nCoV Wuhan strain 01, Vero.

Data set [4] in a line: Safety index, ratio of CC50 for African green monkey Vero cells to EC50 for antiviral activity against SARS-CoV-2 C-Tan-nCoV Wuhan strain 01 infected in African green monkey Vero cells. The data set is classed as toxicity. Conditions: read-out: Ratio CC50/EC50.
The nature of data set [5]: Toxicity in Hamster rat infected with SARS-CoV-2 C-Tan-nCoV Wuhan strain 01 assessed as body weight loss at 25 mg/kg, inh measured after 4 days. The data set is classed as organism-based. Conditions: in vivo, inhaled_or_intranasal, 96 h, time 4 day.
The subject of data set [6] is SARS-CoV-2. Description: Antiviral activity against SARS-CoV-2 C-Tan-nCoV Wuhan strain 01 virus infected in Hamster rat assessed as widening of alveolar septum at 25 mg/kg, inh administered for 3 days starting from 1 hr post infection and measured on day 4 by histopathological analysis. Conditions: Severe acute respiratory syndrome coronavirus 2, time 4.0 day. The data set is classed as functional, organism-based.

Data set [7] deals with SARS-CoV-2. Description: Antiviral activity against SARS-CoV-2 C-Tan-nCoV Wuhan strain 01 virus infected in Hamster rat assessed as widening of bronchus at 25 mg/kg, inh administered for 3 days starting from 1 hr post infection and measured on day 4 by histopathological analysis. Conditions: Severe acute respiratory syndrome coronavirus 2, time 4.0 day. The data set is classed as functional, organism-based.

Data set [8] relates to SARS-CoV-2. Description: Antiviral activity against SARS-CoV-2 C-Tan-nCoV Wuhan strain 01 virus infected in Hamster rat assessed as widening of perivascular interstitium at 25 mg/kg, inh administered for 3 days starting from 1 hr post infection and measured on day 4 by histopathological analysis. The data set is classed as functional, organism-based. Conditions: Severe acute respiratory syndrome coronavirus 2, time 4.0 day.

Data set [9] has as its system SARS-CoV-2. Put plainly: Antiviral activity against SARS-CoV-2 C-Tan-nCoV Wuhan strain 01 virus infected in Hamster rat assessed as infiltration of lymphocytes at 25 mg/kg, inh administered for 3 days starting from 1 hr post infection and measured on day 4 by histopathological analysis. Conditions: Severe acute respiratory syndrome coronavirus 2, time 4.0 day. The data set is classed as functional, organism-based.

The subject of data set [10] is SARS-CoV-2. Put plainly: Antiviral activity against SARS-CoV-2 C-Tan-nCoV Wuhan strain 01 virus infected in Hamster rat assessed as infiltration of neutrophils at 25 mg/kg, inh administered for 3 days starting from 1 hr post infection and measured on day 4 by histopathological analysis. The data set is classed as functional, organism-based. Conditions: Severe acute respiratory syndrome coronavirus 2, time 4.0 day.

Data set [11] relates to SARS-CoV-2. Description: Antiviral activity against SARS-CoV-2 C-Tan-nCoV Wuhan strain 01 virus infected in Hamster rat assessed as widening of alveolar septum at 5 mg/kg, inh administered for 3 days starting from 1 hr post infection and measured on day 4 by histopathological analysis. The data set is classed as functional, organism-based. Conditions: Severe acute respiratory syndrome coronavirus 2, time 4.0 day.

Data set [12] has as its system SARS-CoV-2. Description: Antiviral activity against SARS-CoV-2 C-Tan-nCoV Wuhan strain 01 virus infected in Hamster rat assessed as widening of bronchus at 5 mg/kg, inh administered for 3 days starting from 1 hr post infection and measured on day 4 by histopathological analysis. The data set is classed as functional, organism-based. Conditions: Severe acute respiratory syndrome coronavirus 2, time 4.0 day.

In data set [13] the test system is SARS-CoV-2. Put plainly: Antiviral activity against SARS-CoV-2 C-Tan-nCoV Wuhan strain 01 virus infected in Hamster rat assessed as widening of perivascular interstitium at 5 mg/kg, inh administered for 3 days starting from 1 hr post infection and measured on day 4 by histopathological analysis. The data set is classed as functional, organism-based. Conditions: Severe acute respiratory syndrome coronavirus 2, time 4.0 day.

Data set [14] relates to SARS-CoV-2. Description: Antiviral activity against SARS-CoV-2 C-Tan-nCoV Wuhan strain 01 virus infected in Hamster rat assessed as infiltration of lymphocytes at 5 mg/kg, inh administered for 3 days starting from 1 hr post infection and measured on day 4 by histopathological analysis. The data set is classed as functional, organism-based. Conditions: Severe acute respiratory syndrome coronavirus 2, time 4.0 day.

For data set [15], the system named is SARS-CoV-2. Description: Antiviral activity against SARS-CoV-2 C-Tan-nCoV Wuhan strain 01 virus infected in Hamster rat assessed as infiltration of neutrophils at 5 mg/kg, inh administered for 3 days starting from 1 hr post infection and measured on day 4 by histopathological analysis. The data set is classed as functional, organism-based. Conditions: Severe acute respiratory syndrome coronavirus 2, time 4.0 day.

The structures appear in SMILES notation. Calls of active or inactive are those of the source. The rule behind the calls is not given here.

The values below come from ChEMBL document CHEMBL4842391, “Discovery and Nanosized Preparations of (S,R)-Tylophorine Malate as Novel anti-SARS-CoV-2 Agents” (ACS Med Chem Lett, 2021).

Usually CC50 stands for the concentration at which the toxic effect on the cells reaches its halfway point. A word on the EC50: it is the concentration at which the effect is half-maximal.

The compound `COc1cc2c3c(c4cc(OC)c(OC)cc4c2cc1OC)CN1CCC[C@H]1C3.O=C(O)C[C@@H](O)C(=O)O` had a CC50 in [1] of 26.2 µM. The Activity result in data set [2] is “Non-Toxic”. Also, the EC50 in [3] is 0.03 µM. Moreover, the selectivity ratio in [4] was determined as 268.

As for `CCC(CC)COC(=O)[C@H](C)N[P@](=O)(OC[C@H]1O[C@@](C#N)(c2ccc3c(N)ncnn23)[C@H](O)[C@@H]1O)Oc1ccccc1` [REMDESIVIR], the EC50 in data set [3] was 0.8 µM. In [5], the Activity result is listed as “Non-Toxic”. Moreover, the result in [6], in data set [7], in [8], in data set [9], in [10] and in [11] was Active. Besides, the outcome in data set [12], in data set [13], in [14] and in [15] was Active.
